Test results as given in patent US6358995B1, “Carboxylic acid derivatives having fused rings” (Eisai Co., Ltd., priority 1996, dated 2002).

Tests used:
Assay in all cases: Transcription accelerating activity through RARs (PLAP reporter in COS-1 cells)
Format in all cases: cell-based
Conditions in all cases: relative to ED30 of all-trans retinoic acid = 1, ED30 = concentration giving 30% of activity induced by 1 μM all-trans retinoic acid
RAR-γ = target: T1, RAR-γ (Homo sapiens, UniProt P13631)
T1 construct: expressed in transfected cells; host or cells: COS-1 (African green monkey kidney cells), transient lipofection
T1 sequence (P13631 1-454): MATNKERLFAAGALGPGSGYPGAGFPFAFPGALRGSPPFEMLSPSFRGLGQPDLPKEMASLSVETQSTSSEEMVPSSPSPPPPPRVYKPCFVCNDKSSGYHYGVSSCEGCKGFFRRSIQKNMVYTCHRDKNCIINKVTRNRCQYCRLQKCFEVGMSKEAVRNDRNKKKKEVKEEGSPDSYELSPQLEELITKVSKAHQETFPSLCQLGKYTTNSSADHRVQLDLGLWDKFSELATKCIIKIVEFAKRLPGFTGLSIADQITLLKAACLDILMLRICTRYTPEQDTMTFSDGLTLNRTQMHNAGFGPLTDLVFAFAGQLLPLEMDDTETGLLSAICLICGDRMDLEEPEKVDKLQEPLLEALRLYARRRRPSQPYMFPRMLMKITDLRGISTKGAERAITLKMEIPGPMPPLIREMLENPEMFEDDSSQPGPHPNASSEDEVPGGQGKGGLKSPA
Source text: (§1) Measurement of the Activities of Accelerating Trans-cription Through RARs
(§2) Human RAR Expression Vectors and secretory alkaline phosphatase (PLAP) gene vectors (PLAP vectors) containing in a state integrated into the upstream a competent sequence whose expression is […] through binding with RAR depending on a ligand were temporarily transferred into COS-1 (African green monkey kidney cells), and the PLAP which had been produced depending on a ligand and secreted into a culture medium was analyzed by the chemiluminescence method to determine the transcription-accelerating activity of each compound. Further, the selectivity of each compound among RARs was determined by comparing the transcription accelerating activities of the compound for the receptors with each other.
(§3) On a 60-mm culture dish were scattered 2.5×10^4 COS-1 cells. Four days after, human RAR α, β and γ expression vectors and PLAP vectors were transferred into the cells each in an amount of 4 μg by the lipofection method. Another day after, the resulting cells were recovered, and put on a 96-well culture plate in an amount of 2×10^4 per unit well. Four hours after, the cells were put on a medium containing charcoal-treated fetal bovine serum, followed by the addition of a dilution of all-trans retinoic acid or a test compound. After the lapse of 36 hours, the supernatant was recovered and the resulting samples were treated at 65° C. for 10 minutes to eliminate the non-specific activity. 15 μl of each sample was mixed with 60 μl of a 28 mM sodium carbonate buffer(pH10), followed by the addition of 75 μl of Smilight (trade name, a product of Sumitomo Metal Industries, Ltd., substrate for chemiluminescence). The resulting mixture was reacted at 37° C. for 30 minutes and the intensity of luminescence was determined. The compounds which will be described below induced the transcription activities of RARs dependently on the concentration.

RAR-β = target: T2, RAR-β (Homo sapiens, UniProt P10826)
T2 construct: expressed in transfected cells; host or cells: COS-1 (African green monkey kidney cells), transient lipofection
T2 sequence (P10826 1-455): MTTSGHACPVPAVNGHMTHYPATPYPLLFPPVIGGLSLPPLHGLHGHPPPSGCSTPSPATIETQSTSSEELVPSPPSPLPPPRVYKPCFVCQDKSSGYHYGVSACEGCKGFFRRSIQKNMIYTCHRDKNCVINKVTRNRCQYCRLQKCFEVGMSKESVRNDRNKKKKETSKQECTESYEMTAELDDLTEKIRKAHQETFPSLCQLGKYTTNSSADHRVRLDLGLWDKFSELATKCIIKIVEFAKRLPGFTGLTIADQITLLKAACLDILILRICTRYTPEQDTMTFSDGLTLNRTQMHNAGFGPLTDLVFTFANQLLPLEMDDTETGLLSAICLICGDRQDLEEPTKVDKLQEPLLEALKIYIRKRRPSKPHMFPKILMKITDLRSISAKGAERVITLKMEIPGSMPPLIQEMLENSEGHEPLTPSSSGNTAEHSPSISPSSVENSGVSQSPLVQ
Source text: as §1, §2, §3

RAR-α = target: T3, RAR-α (Homo sapiens, UniProt P10276)
T3 construct: expressed in transfected cells; host or cells: COS-1 (African green monkey kidney cells), transient lipofection
T3 sequence (P10276 1-462): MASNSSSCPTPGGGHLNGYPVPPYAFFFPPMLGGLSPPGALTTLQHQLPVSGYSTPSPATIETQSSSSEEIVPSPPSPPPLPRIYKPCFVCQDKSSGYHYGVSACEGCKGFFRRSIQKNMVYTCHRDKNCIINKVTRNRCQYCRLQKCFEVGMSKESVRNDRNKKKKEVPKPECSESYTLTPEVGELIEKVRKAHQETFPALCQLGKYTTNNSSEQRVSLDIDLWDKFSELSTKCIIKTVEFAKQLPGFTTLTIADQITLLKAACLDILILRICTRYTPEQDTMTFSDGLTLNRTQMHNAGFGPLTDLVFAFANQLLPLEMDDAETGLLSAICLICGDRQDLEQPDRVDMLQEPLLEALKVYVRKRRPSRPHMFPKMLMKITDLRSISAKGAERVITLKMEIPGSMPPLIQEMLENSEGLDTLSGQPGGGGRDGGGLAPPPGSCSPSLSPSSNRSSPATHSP
Source text: as §1, §2, §3

Transcription accelerating activity Relative ED30 RAR-γ (RAR-γ) | Transcription accelerating activity Relative ED30 RAR-β (RAR-β) | Transcription accelerating activity Relative ED30 RAR-α (RAR-α) | Structure (SMILES)
1400 | 160 | 1.0 | O=C(O)c1ccc(-c2ccc(-c3cc4c(Cl)ccc(Cl)c4o3)[nH]2)cc1 [Example 14, 4-{2-[5-(4,7-Dichlorobenzofuran-2-yl)pyrrolyl]}benzoic acid]
2100 | 940 | 3.1 | O=C(O)c1ccc(-c2ccc(-c3cc4cccc(Cl)c4o3)[nH]2)cc1 [Example 15, 4-{2-[5-(7-Chlorobenzofuran-2-yl)pyrrolyl]}benzoic acid]
120 | 24 | 0.26 | CCc1ccc(C)c2cc(-c3ccc(-c4ccc(C(=O)O)cc4)[nH]3)oc12 [Example 17, 4-{2-[5-(4-Methyl-7-ethylbenzofuran-2-yl)pyrrolyl]}benzoic acid]
300 | 59 | 0.66 | CCc1ccc(Cl)c2cc(-c3ccc(-c4ccc(C(=O)O)cc4)[nH]3)oc12 [Example 20, 4-{2-[5-(4-Chloro-7-ethylbenzofuran-2-yl)pyrrolyl]}benzoic acid]
330 | 67 | 0.40 | CCc1cc(Cl)cc2cc(-c3ccc(-c4ccc(C(=O)O)cc4)[nH]3)oc12 [Example 23, 4-{2-[5-(5-Chloro-7-ethylbenzofuran-2-yl)pyrrolyl]}benzoic acid]
1000 | 170 | 0.63 | O=C(O)c1ccc(-c2ccc(-c3cc4c(F)ccc(F)c4o3)[nH]2)cc1 [Example 27, 4-{2-[5-(4,7-Difluorobenzofuran-2-yl)pyrrolyl]}benzoic acid]
790 | 91 | 0.33 | O=C(O)c1ccc(-c2ccc(-c3cc4c(F)ccc(Cl)c4o3)[nH]2)cc1 [Example 42, 4-{2-[5-(4-Fluoro-7-chlorobenzofuran-2-yl)pyrrolyl]}benzoic acid]
240 | 14 | 0.63 | Cc1c(-c2ccc(-c3ccc(C(=O)O)cc3)[nH]2)oc2c(Cl)ccc(Cl)c12 [Example 46, 4-{2-[5-(4,7-Dichloro-3-methylbenzofuran-2-yl)pyrrolyl]}benzoic acid]
710 | 280 | 0.38 | Cc1cc(C)c2oc(-c3ccc(-c4ccc(C(=O)O)cc4)[nH]3)cc2c1 [Example 50, 4-{2-[5-(5,7-Dimethylbenzofuran-2-yl)pyrrolyl]}benzoic acid]
430 | 26 | 0.17 | Cc1ccc(Cl)c2oc(-c3ccc(-c4ccc(C(=O)O)cc4)[nH]3)cc12 [Example 53, 4-{2-[5-(7-Chloro-4-methylbenzofuran-2-yl)pyrrolyl]}benzoic acid]
120 | 31 | 0.20 | CCc1cccc2cc(-c3ccc(-c4ccc(C(=O)O)cc4)[nH]3)oc12 [Example 55, 4-{2-[5-(7-Ethylbenzofurn-2-yl)pyrrolyl]}benzoic acid]
750 | 110 | 0.72 | O=C(O)c1ccc(-c2ccc(-c3cc4c(Cl)cccc4o3)[nH]2)cc1 [Example 60, 4-{2-[5-(4-Chlorobenzofuran-2-yl)pyrrolyl]}benzoic acid]

The remaining lines, values behind:

Structure (SMILES) | Transcription accelerating activity Relative ED30 RAR-γ (RAR-γ) | Transcription accelerating activity Relative ED30 RAR-β (RAR-β) | Transcription accelerating activity Relative ED30 RAR-α (RAR-α)
COc1ccc2ccc(-c3ccc(-c4ccc(C(=O)O)cc4)[nH]3)cc2c1C [Example 4, 4-{2-[5-(7-Methoxy-8-methylnaphthalen-2-yl)pyrrolyl]}benzoic acid] | — (—; >4000) | — (—; >4000) | 49
Cc1cccc2ccc(-c3ccc(-c4ccc(C(=O)O)cc4)[nH]3)cc12 [Example 6, 4-{2-[5-(8-Methylnaphthalen-2-yl)pyrrolyl]}benzoic acid] | 240 | 110 | 0.9
CCc1cccc2ccc(-c3ccc(-c4ccc(C(=O)O)cc4)[nH]3)cc12 [Example 7, 4-{2-[5-(8-Ethylnaphthalen-2-yl)pyrrolyl]}benzoic acid] | 190 | 36 | 0.9
Cc1ccc(C)c2oc(-c3ccc(-c4ccc(C(=O)O)cc4)[nH]3)cc12 [Example 13, 4-{2-[5-(4,7-Dimethylbenzofuran-2-yl)pyrrolyl]}benzoic acid] | 48 | 13 | 0.4
CCCc1cccc2cc(-c3ccc(-c4ccc(C(=O)O)cc4)[nH]3)oc12 [Example 16, 4-{2-[5-(7-n-Propylbenzofuran-2-yl)pyrrolyl]}benzoic acid] | 410 | 74 | 1.0
CCc1cc(F)cc2cc(-c3ccc(-c4ccc(C(=O)O)cc4)[nH]3)oc12 [Example 25, 4-{2-[5-(5-Fluoro-7-ethylbenzofuran-2-yl)pyrrolyl]}benzoic acid] | 63 | 62 | 0.65
Cc1ccc(C)c2c(C)c(-c3ccc(-c4ccc(C(=O)O)cc4)[nH]3)oc12 [Example 47, 4-{2-[5-(3,4,7-Trimethylbenzofuran-2-yl)pyrrolyl]}benzoic acid] | 41 | 2.4 | 0.80
Cc1ccc(Cl)c2sc(-c3ccc(-c4ccc(C(=O)O)cc4)[nH]3)cc12 [Example 75, 4-{2-[5-(7-Chloro-4-methylbenzothiophen-2-yl)pyrrolyl]}benzoic acid] | 2000 | 150 | 0.80
